Measurements reported in patent publication US10294218B2 (VIROSTATICS SRL, priority 2012, dated 2019).
pIC50: −log10 of the molar value. Like-named read-outs stand apart in the source and are kept apart here.

How the values were obtained:
Primary T cells = assay: Antiproliferative activity (AP), mitotic index by flow cytometry; assay type: cell-based; settings: T-cell, read-out: AP50 (Inhibitory concentration 50% for antiproliferative capacity)
Description: Primary T cells are cultured and exposed to different concentrations of the test compounds. Cell proliferation is analysed by measuring mitotic index (ie the number of cell divisions a population of cells undergoes) through flow cytometry based techniques. Mitotic index is expressed as percentage of untreated control. Inhibition of cell proliferation (AP) is then calculated (AP=100 minus % mitotic index compared to control, AP of control=0%). Inhibitory concentration 50% for antiproliferative capacity (AP50) is calculated.
(§1) In Tables 2, 3 and 4, ND means Not Determined.

[1] = test system: laboratory strain of HIV-1; assay: Antiviral activity against HIV (AV), p24 in infected activated primary T cells; assay type: cell-based; settings: for pIC50: Human immunodeficiency virus 1, T-cell, read-out: AV50 (Inhibitory concentration 50% for antiviral activity); for antiviral and antiproliferative activity and cytotoxicity profile (in words): summary of AV, AP and cytotoxicity assays
Description: Activated primary T cells are infected with a laboratory strain of HIV-1, then cultured and exposed to different concentrations of the test compounds. HIV replication is analysed by measuring the viral protein p24 and expressed as percentage of untreated control. Inhibition of viral replication (AV) is then calculated (AV=100 minus the % p24 compared to control, AV of control=0%). Inhibitory concentration 50% for antiviral activity (AV50) is calculated.
as §1

| Compound | pIC50 (Primary T cells) | pIC50 (Primary T cells; primary T cells, mitotic index) | pIC50 [1] | antiviral and antiproliferative activity and cytotoxicity profile (in words) [1] | pIC50 ([1]; HIV-1 infected activated primary T cells, p24) |
| --- | --- | --- | --- | --- | --- |
| COc1ccc(Nc2cc(-c3ccccc3OC)ncn2)cc1CNCc1ccccc1 [Example 1, N-(3-((Benzylamino)methyl)-4-methoxyphenyl)-6-(2-methoxyphenyl)pyrimidin-4-amine] | 5.60 |  |  |  |  |
| COc1ccccc1-c1cc(Nc2ccc(N3CCN(C)CC3)c(Cn3cnc4ccccc43)c2)ncn1 [Example 2, N-(3-((1H-Benzo[d]imidazol-1-yl)methyl)-4-(4-methylpiperazin-1-yl)phenyl)-6-(2-methoxyphenyl)pyrimidin-4-amine] |  | 6.40 |  |  |  |
| COc1ccc(Nc2cc(-c3ccccc3OC)ncn2)cc1CNS(C)(=O)=O [Example 4, N-(2-Methoxy-5-(6-(2-methoxyphenyl)pyrimidin-4-ylamino)benzyl)methanesulfonamide] |  | 5.82 |  |  |  |
| COc1ccccc1-c1cc(Nc2ccc(Cl)c(CO)c2)ncn1 [Example 6, (2-Chloro-5-(6-(2-methoxyphenyl)pyrimidin-4-ylamino)phenyl)methanol] |  | < 6.30 | < 5.82 |  |  |
| COc1ccccc1-c1cc(Nc2ccc(Cl)c(C(=O)NN)c2)ncn1 [Example 7, 2-Chloro-5-(6-(2-methoxyphenyl)pyrimidin-4-ylamino)benzohydrazide] |  | 5.40 |  |  |  |
| COc1ccc(Nc2cc(-c3ccccc3OC)ncn2)cc1NS(C)(=O)=O [Example 9, N-(2-Methoxy-5-(6-(2-methoxyphenyl)pyrimidin-4-ylamino)phenyl)methanesulfonamide] |  | < 5.82 | > 5.82 |  |  |
| CNS(=O)(=O)Nc1cc(Nc2cc(-c3ccccc3OC)ncn2)ccc1OC [Example 10, (2-Methoxy-5-(6-(2-methoxyphenyl)pyrimidin-4-ylamino)phenyl)(methylsulfamoyl)amine] |  | 6.30 | 6.10 | good antiviral and antiproliferative activity and a good cytotoxicity profile |  |
| COc1ccccc1-c1cc(Nc2ccc(OC)c([N+](=O)[O-])c2)ncn1 [Example 11, N-(4-Methoxy-3-nitrophenyl)-6-(2-methoxyphenyl)pyrimidin-4-amine] |  | < 5.82 |  |  |  |
| COc1ccccc1-c1cc(Nc2ccc(O)c([N+](=O)[O-])c2)ncn1 [Example 12, 4-(6-(2-methoxyphenyl)pyrimidin-4-ylamino)-2-nitrophenol] |  | < 5.82 |  |  |  |
| COc1ccc(Nc2cc(-c3ccccc3OC)ncn2)cc1NS(=O)(=O)NC1CCCCC1 [Example 13, (2-Methoxy-5-(6-(2-methoxyphenyl)pyrimidin-4-ylamino)phenyl) (cyclohexylsulfamoyl)amine] |  | 6.22 | 6.52 | good antiviral and antiproliferative activity and a good cytotoxicity profile |  |
| CCOC(=O)c1cc(Nc2cc(-c3ccccc3OC)ncn2)ccc1Cl [Example 14, Ethyl 2-chloro-5-(6-(2-methoxyphenyl)pyrimidin-4-ylamino)benzoate] |  | < 6.30 |  |  |  |
| COc1ccccc1-c1cc(Nc2ccc(Cl)c(C(=O)N3CCCC3)c2)ncn1 [Example 15, (2-Chloro-5-(6-(2-methoxyphenyl)pyrimidin-4-ylamino)phenyl)(pyrrolidin-1-yl)methanone] |  | < 6.30 |  |  |  |
| COc1ccccc1-c1cc(Nc2ccc(Cl)c(Cn3cnc4ccccc43)c2)ncn1 [Example 16, N-(3-((1H-benzo[d]imidazol-1-yl)methyl)-4-chlorophenyl)-6-(2-methoxyphenyl)pyrimidin-4-amine] | 7.00 |  | 6.96 | good antiviral and antiproliferative activity and a good cytotoxicity profile |  |
| COc1ccccc1-c1cc(Nc2ccc(N3CCN(C)CC3)c(CO)c2)ncn1 [Example 17] |  | 6.46 | < 5.82 |  |  |
| CCOC(=O)c1cc(Nc2cc(-c3ccccc3OC)ncn2)ccc1N1CCOCC1 [Example 18, Ethyl 5-(6-(2-methoxyphenyl)pyrimidin-4-ylamino)-2-morpholinobenzoate] |  | < 6.30 | < 5.82 |  |  |
| COc1ccccc1-c1cc(Nc2ccc(N3CCOCC3)c(CO)c2)ncn1 [Example 19, (5-(6-(2-Methoxyphenyl)pyrimidin-4-ylamino)-2-morpholinophenyl)methanol] |  | < 6.30 | 6.00 |  |  |
| COC(=O)c1cc(Nc2cc(-c3ccccc3OC)ncn2)ccc1O [Example 21, Methyl 2-hydroxy-5-(6-(2-methoxyphenyl)pyrimidin-4-ylamino)benzoate] |  | < 6.30 | > 5.82 |  |  |
| COc1ccc(Nc2cc(-c3ccccc3OC)ncn2)cc1F [Example 22, N-(3-Fluoro-4-methoxyphenyl)-6-(2-methoxyphenyl)pyrimidin-4-amine] |  | < 6.30 | > 5.82 |  |  |

| Compound | pIC50 (Primary T cells) | pIC50 (Primary T cells; primary T cells, mitotic index) | pIC50 [1] | antiviral and antiproliferative activity and cytotoxicity profile (in words) [1] | pIC50 ([1]; HIV-1 infected activated primary T cells, p24) |
| --- | --- | --- | --- | --- | --- |
| COc1ccc(Nc2cc(-c3ccccc3OC)ncn2)cc1C(=O)NCc1ccccc1 [Example 23, N-Benzyl-2-methoxy-5-(6-(2-methoxyphenyl)pyrimidin-4-ylamino)benzamide] | < 6.30 |  | < 6.30 |  |  |
| COc1ccc(Nc2cc(-c3ccccc3OC)ncn2)cc1CO [Example 24, (2-Methoxy-5-(6-(2-methoxyphenyl)pyrimidin-4-ylamino)phenyl)methanol] | < 6.30 |  | < 6.30 |  |  |
| CNC(=O)c1cc(Nc2cc(-c3ccccc3OC)ncn2)ccc1OC [Example 25, 2-Methoxy-5-(6-(2-methoxyphenyl)pyrimidin-4-ylamino)-N-methylbenzamide] | < 6.30 |  | < 6.30 |  |  |
| COc1ccc(Nc2cc(-c3ccccc3OC)ncn2)cc1OC(=O)C(C)(C)C [Example 26, 2-methoxy-5-(6-(2-methoxyphenyl)pyrimidin-4-ylamino)phenyl pivalate] |  | 7.00 |  | good antiviral and antiproliferative activity and a good cytotoxicity profile | 7.00 |
| COc1ccc(Nc2cc(-c3ccccc3OC)ncn2)cc1C(=O)NCc1ccncc1 [Example 28, 2-Methoxy-5-(6-(2-methoxyphenyl)pyrimidin-4-ylamino)-N-(pyridin-4-ylmethyl)benzamide] | < 6.30 |  | < 6.30 |  |  |
| COc1ccc(Nc2cc(-c3ccccc3OC)ncn2)cc1C=O [Example 29, 2-Methoxy-5-(6-(2-methoxyphenyl)pyrimidin-4-ylamino)benzaldehyde] |  | < 6.30 | < 6.30 |  |  |
| COC(=O)c1cc(Nc2cc(-c3ccccc3OC)ncn2)ccc1OC [Example 30, Methyl 2-methoxy-5-(6-(2-methoxyphenyl)pyrimidin-4-ylamino)benzoate] |  | < 6.30 | < 5.82 |  |  |
| COc1ccc(Nc2cc(-c3ccccc3OC)ncn2)cc1Cn1cnc2ccccc21 [Example 31, N-(3-((1H-Benzo[d]imidazol-1-yl)methyl)-4-methoxyphenyl)-6-(2-methoxyphenyl)pyrimidin-4-amine] | 6.46 |  | 6.70 | good antiviral and antiproliferative activity and a good cytotoxicity profile |  |
| COc1ccc(Nc2cc(-c3ccccc3OC)ncn2)cc1O [Example 32, 2-Methoxy-5-(6-(2-methoxyphenyl)pyrimidin-4-ylamino)phenol] |  | 7.15 | 6.82 | good antiviral and antiproliferative activity and a good cytotoxicity profile |  |
| COc1ccc(Nc2cc(-c3ccccc3OC)ncn2)cc1C(=O)NN [Example 33, 2-Methoxy-5-(6-(2-methoxyphenyl)pyrimidin-4-ylamino)benzohydrazide] | 5.70 |  |  |  |  |
| COc1ccc(Nc2cc(-c3ccccc3OC)ncn2)cc1CNc1ccccc1 [Example 34, N-(4-Methoxy-3-((phenylamino)methyl)phenyl)-6-(2-methoxyphenyl)pyrimidin-4-amine] | < 5.30 |  |  |  |  |
| COc1ccccc1-c1cc(Nc2ccc(N3CCN(C)CC3)c(S(N)(=O)=O)c2)ncn1 [Example 38, 5-(6-(2-Methoxyphenyl)pyrimidin-4-ylamino)-2-(4-methylpiperazin-1-yl)benzenesulfonamide] |  | < 6.30 | > 5.82 |  |  |
| CCOc1ccc(Nc2cc(-c3ccccc3OC)ncn2)cc1Cn1cnc2ccccc21 [Example 39, N-(3-((1H-Benzo[d]imidazol-1-yl)methyl)-4-ethoxyphenyl)-6-(2-methoxyphenyl)pyrimidin-4-amine] |  | 6.52 | < 6.00 |  |  |
| COc1ccccc1-c1cc(Nc2ccc(F)c(Cn3cnc4ccccc43)c2)ncn1 [Example 40, N-(3-((1H-Benzo[d]imidazol-1-yl)methyl)-4-fluorophenyl)-6-(2-methoxyphenyl)pyrimidin-4-amine] |  | < 6.70 | 6.30 |  |  |
| COc1ccc(Nc2cc(-c3ccccc3OC)ncn2)cc1N [Example 41, 4-Methoxy-N1-(6-(2-methoxyphenyl)pyrimidin-4-yl)benzene-1,3-diamine] | 7.10 |  | 7.22 | good antiviral and antiproliferative activity and a good cytotoxicity profile |  |
| COc1ccccc1-c1cc(Nc2ccc(N(C)C)c(Cn3cnc4ccccc43)c2)ncn1 [Example 42, 2-((1H-Benzo[d]imidazol-1-yl)methyl)-N4-(6-(2-methoxyphenyl)pyrimidin-4-yl)-N1,N1-dimethylbenzene-1,4-diamine] | 5.74 |  |  |  |  |
| COc1ccccc1-c1cc(Nc2ccc(Cl)c(C(N)=O)c2)ncn1 [Example 44, 2-Chloro-5-(6-(2-methoxyphenyl)pyrimidin-4-ylamino)benzamide] |  | 5.30 |  |  |  |
